Measurements: patent US20170027936A1, “ABL1 INHIBITOR FOR TREATING AND PREVENTING OCULAR NEOVASCULARISATION” (UCL BUSINESS PLC, priority 2014, published 2017)
“Also recorded” adds a separate entry of the source.

Tests used:
[1] = tested on: BCR-ABL-expressing Ba/F3 and bone marrow cells; conditions: murine xenograft models of leukaemia; cited from earlier work
[2] = tested on: PXN Y118 phosphorylation; test: PXN Y118 phosphorylation in HDMEC plated on FN (immunofluorescence, immunoblotting); assay type: cell-based, human; conditions: 10 μM Imatinib 30 min before and during plating on FN, versus vehicle
Procedure: (§1) (A-C) ABL1 kinase activity is essential for PXN phosphorylation. […] In (A), pPXN Y118 (green) is shown together with phalloidin (red) and DAPI (blue) on the left hand side and as single channel in grey scale on the right hand side; scale bar 20 μm. pPXN pixel intensity was quantified in (B) and expressed as fold change in knockdown cells at the indicated time points relative to control cells at 0 min; mean±SEM of four independent experiments.
(§2) Human microvascular dermal EC (HDMEC; Promocell, UK) and human umbilical vein EC (HUVEC; Promocell) were cultured in standard conditions and transfected with Lipofectamine RNAIMAX (Life Technologies). Primary mouse lung EC (MLEC) were isolated from mice between one and two months of age by magnetic-activated cell sorting (MACS) with PECAM antibodies (BD Biosciences, UK). […] In some experiments, cells were stimulated with VEGF165 50 ng/ml for the indicated times.
(§3) Immunofluorescence staining of HDMEC and p6 mouse retinas was analysed with a L5M710 laser scanning confocal microscope.

[3] = tested on: HDMEC; test: Actin remodelling and cell spreading of HDMEC plated on FN (phalloidin staining); assay type: cell-based, human; conditions: Imatinib-treated
Procedure: as §1, §2, §3

[4] = tested on: retinal vasculature; test: Physiological retinal angiogenesis in the perinatal mouse (IB4/FN labelled P6 retinal flatmounts); assay type: in vivo
Source text: FIG. 7 ABL1 is essential for vessel spouting and branching in the retina. […] Vascular extension from the retinal centre to the vascular front is indicated with red arrows. […] Asterisks indicate statistical significance: **P<0.01.
(C,D) Reduced astrocyte, but not vascular FN deposition in Imatinib-treated retinas. […] Note reduced FN staining of astrocyte processes ahead of the vascular front (A), whilst the vasculature was prominently stained for FN.
Examples of abnormally long and wide sprouts without lateral protrusions or connections are indicated with arrows. (G) Quantification of filopodial bursts per vascular front length as an indicator of tip cell number, and quantification of branchpoints behind the vascular front; vehicle, n=7; P4/5, n=3; P2-5, n=4; ***P<0.001 versus control; ^♯P<0.05 for P4/5 versus P2-5treatment.
All animal procedures were performed in accordance with institutional and UK Home Office guidelines. We used C57/616 wild type mice (Charles River Laboratories), littermate wild type and heterozygous Nrp/-null mutants and mice carrying two floxed conditional null Nrp1 alleles (Nrp1^fl/fl) combined with Pdgfb-iCre-ERT2-Egfp with codon-improved Cre on a C57/616 background. For tamoxifen-induction of CRE-mediated recombination, 0.2 mg of tamoxifen (SIGMA) dissolved in peanut oil to 2 mg/ml was administered via intraperitoneal injection into pups at the indicated times. […] OIR was induced as previously described. Briefly, nursing dams and their pups were maintained at 75±3% O2 in an oxygen supply chamber from P7 to P12; dams were rested in room air for 1 h each day. Dams and pups were returned to room air on P12 and the pups culled on P17 to isolate retinas for immunolabelling; the size of the avascular and neovascular areas was determined with Photoshop CS4 (Adobe Inc.) in images acquired with a SZX16 stereofluorescent microscope (Olympus) equipped with a digital camera (Hamamatsu Photonics Ltd).
as §3

[5] = tested on: pathological angiogenesis in the retina; conditions: OIR, P17 retina, daily Imatinib after return to normoxia (P13-16), versus vehicle
[6] = P6 retina, Imatinib P2 to P5, versus vehicle
[7] = P6 retina, Imatinib on P4/5 or P2-5, versus vehicle
[8] = P6 retina, Imatinib-treated mice

| Compound | suppression of proliferation of BCR-ABL-expressing cells in vivo [1] | PXN Y118 phosphorylation (pixel intensities in immunostains and immunoblots) [2] | cell spreading [3] | stress fibres / cortical actin (phalloidin) [3] | FN pixel intensity in IB4-positive (vascular) areas [4, 6] | astrocyte FN deposition ahead of the vascular front [4, 6] | vascular extension across the retina [4, 6] | branchpoints behind the vascular front [4, 7] | tip cells (filopodial bursts at the vascular front) [4, 7] | filopodia morphology at the vascular front [4, 8] | interaction of tip cells with microglia [4, 8] | sprout morphology at the vascular front [4, 8] | vascular network density ([4]; P6 retinal flatmounts, Imatinib versus vehicle) | formation of neovascular tufts (NV area) [5] |
| --- | --- | --- | --- | --- | --- | --- | --- | --- | --- | --- | --- | --- | --- | --- |
| O=C(NCCO)c1cccc(-c2cc(Nc3ccc(OC(F)(F)F)cc3)ncn2)c1 [GNF-5, N-(2-Hydroxyethyl)-3-(6-(4(trifluoromethoxy)phenylamino)pyrimidin-4-yl)benzamide] | exhibits in vivo efficacy in suppressing the proliferation |  |  |  |  |  |  |  |  |  |  |  |  |  |
| Cc1ccc(NC(=O)c2ccc(CN3CCN(C)CC3)cc2)cc1Nc1nccc(-c2cccnc2)n1 [Imatinib] |  | significantly reduced | reduced | few stress fibres, but abundant cortical actin | no difference; also recorded: not significantly (ns) changed | significantly reduced | small, but significant reduction; also recorded: Reduced | significant and lmatinib dose-dependent reduction; also recorded: Dose-dependent decrease | significantly fewer | thin, wavy and misoriented | not prevented | longer and wider, with fewer lateral protrusions connecting to neighbouring sprouts | reduced | effectively inhibited; also recorded: reduced |
